In patent publication US10745382B2 (BRISTOL-MYERS SQUIBB COMPANY, priority 2015, dated 2020):
Counter-ions that a name gives are not always drawn.

Target: T1, PD-1/PD-L1 (Homo sapiens, UniProt Q9NZQ7)
T1 construct: made in house; host or cells: HEK293T
Test: PD-1/PD-L1 Homogenous Time-Resolved Fluorescence (HTRF) binding assay
Conditions: PD-L1-His 10 nM, PD-1-Ig 20 nM; numeric IC50; read-out: Range or IC50
Summary of the method: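 Binding was measured by HTRF in dPBS with 0.1% BSA and 0.05% Tween-20. Detection used europium cryptate anti-Ig (1 nM final) and APC anti-His (20 nM final) added over the binding reaction.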

T1 sequence (Q9NZQ7 with tags, fused parts or gaps): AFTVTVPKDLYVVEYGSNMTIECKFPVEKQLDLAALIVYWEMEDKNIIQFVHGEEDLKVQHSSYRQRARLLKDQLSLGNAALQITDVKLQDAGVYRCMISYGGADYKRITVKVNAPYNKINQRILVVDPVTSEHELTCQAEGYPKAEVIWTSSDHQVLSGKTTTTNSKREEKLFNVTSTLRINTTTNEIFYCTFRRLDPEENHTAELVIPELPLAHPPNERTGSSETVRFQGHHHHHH

IC50 [nM] | Structure (SMILES)
1 | Cc1c(COc2cc(OCc3cncc(C#N)c3)c(CN3CCCC[C@H]3C(=O)O)cc2Cl)cccc1-c1cccc(OCCCN2CCC(CO)(C(=O)O)C2)c1Cl (stereo partly drawn) [Example 1106, (2S)-1-(4-((3′-(3-(3-carboxy-3-(hydroxymethyl)pyrrolidin-1-yl)propoxy)-2′-chloro-2-methyl-[1,1′-biphenyl]-3-yl)methoxy)-5-chloro-2-((5-cyanopyridin-3-yl)methoxy)benzyl)piperidine-2-carboxylic Acid]

Same assay, conditions: PD-L1-His 10 nM, PD-1-Ig 20 nM; value given as range class; read-out: Range or IC50

Structure (SMILES) | IC50 [nM]
COC(=O)C1(O)CCN(CCCOc2cccc(-c3cccc(COc4cc(OCc5cncc(C#N)c5)c(CN[C@H](CO)C(=O)O)cc4Cl)c3C)c2)CC1 [Example 1028, (R)-2-((5-chloro-2-((5-cyanopyridin-3-yl)methoxy)-4-((3′-(3-(4-hydroxy-4-(methoxycarbonyl)piperidin-1-yl)propoxy)-2-methyl-[1,1′-biphenyl]-3-yl)methoxy)benzyl)amino)-3-hydroxypropanoic Acid] | 0.21 to 10
COC(=O)[C@@H]1CCCCN1Cc1cc(Cl)c(OCc2cccc(-c3cccc(OCCCN4CCOCC4)c3C)c2C)cc1OCc1cccc(C#N)c1 [Example 3053, (S)-methyl 1-(5-chloro-2-((3-cyanobenzyl)oxy)-4-((2,2′-dimethyl-3′-(3-morpholinopropoxy)-[1,1′-biphenyl]-3-yl)methoxy)benzyl)piperidine-2-carboxylate, 2 TFA] | 100 to 2000
Cc1c(COc2cc(OCc3cncc(C#N)c3)c(CN[C@@H](CNC(=O)OC(C)(C)C)C(=O)O)cc2Cl)cccc1-c1cccc(C(=O)N2CCOCC2)c1C [Example 4056, (S)-3-((tert-butoxycarbonyl)amino)-2-((5-chloro-2-((5-cyanopyridin-3-yl)methoxy)-4-((2,2′-dimethyl-3′-(morpholine-4-carbonyl)-[1,1′-biphenyl]-3-yl)methoxy)benzyl)amino)propanoic Acid] | 100 to 2000
Cc1c(COCCN2CC[C@@H](O)C2)cccc1-c1cccc(COc2cc(OCc3cncc(C#N)c3)c(CN(C)C(CO)CO)cc2Cl)c1C [Example 4127, (R)-5-((4-chloro-2-(((1,3-dihydroxypropan-2-yl)(methyl)amino)methyl)-5-((3′-((2-(3-hydroxypyrrolidin-1-yl)ethoxy)methyl)-2,2′-dimethyl-[1,1′-biphenyl]-3-yl)methoxy)phenoxy)methyl)nicotinonitrile] | 0.21 to 10
Cc1c(COc2cc(OCc3cncc(C#N)c3)c(CN3CCCC[C@H]3C(=O)O)cc2Cl)cccc1-c1cccc(OC/C=C/CN2CC[C@@H](O)C2)c1 [Example 1087, (S)-1-(5-chloro-2-((5-cyanopyridin-3-yl)methoxy)-4-((3′-(((E)-4-((R)-3-hydroxypyrrolidin-1-yl)but-2-en-1-yl)oxy)-2-methyl-[1,1′-biphenyl]-3-yl)methoxy)benzyl)piperidine-2-carboxylic Acid] | 10 to 100
Cc1c(COc2cc(OCc3cncc(C#N)c3)c(CN3CC[C@H]3C(=O)O)cc2Cl)cccc1-c1cccc(OCCC(=O)N2CC[C@@H](O)C2)c1 [Example 1012, (S)-1-(5-chloro-2-((5-cyanopyridin-3-yl)methoxy)-4-((3′-(3-((R)-3-hydroxypyrrolidin-1-yl)-3-oxopropoxy)-2-methyl-[1,1′-biphenyl]-3-yl)methoxy)benzyl)azetidine-2-carboxylic Acid] | 0.21 to 10
CC(CO)(CO)NCc1cc(Cl)c(OCc2cccc(-c3cccc(OCCCNC[C@H](O)CO)c3Cl)c2Cl)cc1OCc1cncc(C#N)c1 [Example 2054, (S)-5-((4-chloro-5-((2,2′-dichloro-3′-(3-((2,3-dihydroxypropyl)amino)propoxy)-[1,1′-biphenyl]-3-yl)methoxy)-2-(((1,3-dihydroxy-2-methylpropan-2-yl)amino)methyl)phenoxy)methyl)nicotinonitrile] | 0.21 to 10
Cc1c(COc2cc(OCc3cncc(C#N)c3)c(CN3CCCC[C@H]3C(=O)O)c(C)c2Cl)cccc1-c1cccc(OCCCN2CC[C@@H](O)C2)c1C [Example 4101, (S)-1-(3-chloro-6-((5-cyanopyridin-3-yl)methoxy)-4-((3′-(3-((R)-3-hydroxypyrrolidin-1-yl)propoxy)-2,2′-dimethyl-[1,1′-biphenyl]-3-yl)methoxy)-2-methylbenzyl)piperidine-2-carboxylic Acid] | 0.21 to 10
Cc1c(COc2cc(OCc3cncc(C#N)c3)c(CN3CCCC[C@H]3C(=O)O)cc2Cl)cccc1-c1ccc2c(c1)OC(CCN1CC[C@@H](O)C1)CO2 (mixture of isomers) [Example 1504, (2S)-1-(5-chloro-2-((5-cyanopyridin-3-yl)methoxy)-4-((3-(3-(2-((R)-3-hydroxypyrrolidin-1-yl)ethyl)-2,3-dihydrobenzo[b][1,4]dioxin-6-yl)-2-methylbenzyl)oxy)benzyl)piperidine-2-carboxylic acid] | 0.21 to 10
Cc1c(COc2cc(OCc3cncc(C#N)c3)c(CNC(C)(CO)CO)cc2Cl)cccc1-c1cccc(C(=O)N2CCOCC2)c1C [Example 4053, 5-((4-chloro-2-(((1,3-dihydroxy-2-methylpropan-2-yl)amino)methyl)-5-((2,2′-dimethyl-3′-(morpholine-4-carbonyl)-[1,1′-biphenyl]-3-yl)methoxy)phenoxy)methyl)nicotinonitrile] | 10 to 100
Cc1ccc(OCCCN2CC[C@@H](O)C2)c(C)c1-c1cccc(COc2cc(OCc3cncc(C#N)c3)c(C=O)cc2Cl)c1C [Example 3027, 5-((4-chloro-2-formyl-5-((3′-(3-((R)-3-hydroxypyrrolidin-1-yl)propoxy)-2,2′,6′-trimethyl-[1,1′-biphenyl]-3-yl)methoxy)phenoxy)methyl)nicotinonitrile] | 10 to 100
Cc1c(COc2cc(OCc3cncc(C#N)c3)c(CNC(C)(CO)C(=O)O)cc2Cl)cccc1-c1cccc(OCc2cncc(C#N)c2)c1 (racemic) [Example 3018, 2-((5-chloro-2-((5-cyanopyridin-3-yl)methoxy)-4-((3′-((5-cyanopyridin-3-yl)methoxy)-2-methyl-[1,1′-biphenyl]-3-yl)methoxy)benzyl)amino)-3-hydroxy-2-methylpropanoic Acid] | 0.21 to 10

The remaining lines, values ahead:

IC50 [nM] | Structure (SMILES)
0.21 to 10 | CCOC(=O)C1(O)CCN(CCCOc2cccc(-c3cccc(COc4cc(OCc5cncc(C#N)c5)c(CN[C@@H](CO)C(=O)O)cc4Cl)c3C)c2Cl)CC1 [Example 1095, (5-chloro-4-((2′-chloro-3′-(3-(4-(ethoxycarbonyl)-4-hydroxypiperidin-1-yl)propoxy)-2-methyl-[1,1′-biphenyl]-3-yl)methoxy)-2-((5-cyanopyridin-3-yl)methoxy)benzyl)-L-serine]
0.21 to 10 | Cc1c(COc2cc(OCc3cncc(C#N)c3)c(CNCCN3CCOCC3)cc2Cl)cccc1-c1cccc(OCCCN2CC[C@@H](O)C2)c1C [Example 2122, (R)-5-((4-chloro-5-((3′-(3-(3-hydroxypyrrolidin-1-yl)propoxy)-2,2′-dimethyl-[1,1′-biphenyl]-3-yl)methoxy)-2-(((2-morpholinoethyl)amino)methyl)phenoxy)methyl)nicotinonitrile]
0.21 to 10 | Cc1c(COc2cc(OCc3cncc(C#N)c3)c(CN3CCCC[C@H]3C(=O)O)cc2Cl)cccc1-c1cccc(OCCCN[C@H](CO)C(C)C)c1C [Example 2238, (2S)-1-(5-chloro-2-((5-cyanopyridin-3-yl)methoxy)-4-((3′-(3-((S)-1-hydroxy-3-methylbutan-2-ylamino)propoxy)-2,2′-dimethylbiphenyl-3-yl)methoxy)benzyl)piperidine-2-carboxylic Acid]
0.21 to 10 | Cc1c(COc2cc(OCc3cncc(C#N)c3)c(CNC(C)(CO)CO)cc2Cl)cccc1-c1cccc(OCCCN2CCC[C@@H](CO)C2)c1C [Example 2289, (R)-5-((4-chloro-2-(((1,3-dihydroxy-2-methylpropan-2-yl)amino)methyl)-5-((3′-(3-(3-(hydroxymethyl)piperidin-1-yl)propoxy)-2,2′-dimethyl-[1,1′-biphenyl]-3-yl)methoxy)phenoxy)methyl)nicotinonitrile]
0.21 to 10 | COC(=O)C1(O)CCN(CCCOc2cccc(-c3cccc(COc4cc(OCc5cncc(C#N)c5)c(CN[C@](C)(CO)C(=O)O)cc4Cl)c3C)c2C)C1 (stereo partly drawn) [Example 1046, (2R)-2-((5-chloro-2-((5-cyanopyridin-3-yl)methoxy)-4-((3′-(3-(3-hydroxy-3-(methoxycarbonyl)pyrrolidin-1-yl)propoxy)-2,2′-dimethyl-[1,1′-biphenyl]-3-yl)methoxy)benzyl)amino)-3-hydroxy-2-methylpropanoic Acid]
0.21 to 10 | Cc1c(COc2cc(OCc3cncc(C#N)c3)c(CNC(CO)(CO)CO)cc2Cl)cccc1-c1cccc(OCCCN2CCCC(CO)C2)c1C (stereo not drawn) [Example 2284, 5-((4-chloro-2-(((1,3-dihydroxy-2-(hydroxymethyl)propan-2-yl)amino)methyl)-5-((3′-(3-(3-(hydroxymethyl)piperidin-1-yl)propoxy)-2,2′-dimethyl-[1,1′-biphenyl]-3-yl)methoxy)phenoxy)methyl)nicotinonitrile]
0.21 to 10 | Cc1c(COc2cc(OCc3cncc(C#N)c3)c(CN3CCCC[C@H]3C(=O)O)cc2Cl)cccc1-c1cccc(OCCCN2CCC(O)(C(=O)O)CC2)c1C [Example 1061, (S)-1-(4-((3′-(3-(4-carboxy-4-hydroxypiperidin-1-yl)propoxy)-2,2′-dimethyl-[1,1′-biphenyl]-3-yl)methoxy)-5-chloro-2-((5-cyanopyridin-3-yl)methoxy)benzyl)piperidine-2-carboxylic Acid]
0.21 to 10 | Cc1c(OCCCN2CCCCC2)cccc1-c1cccc(COc2cc(OCc3cncc(C#N)c3)c(CNC(CO)CO)cc2Cl)c1Cl [Example 2301, 5-((4-chloro-5-((2-chloro-2′-methyl-3′-(3-(piperidin-1-yl)propoxy)-[1,1′-biphenyl]-3-yl)methoxy)-2-(((1,3-dihydroxypropan-2-yl)amino)methyl)phenoxy)methyl)nicotinonitrile]
